No end group written: not given here.
Target: T1, GPR103 I26N-termA (Homo sapiens, UniProt Q96P65, I26A)
T1 construct: we used human full-length QRFPR-encoding plasmids; expressed in transfected cells; host or cells: HEK293 cells, pCAGGS vector
T1 sequence (Q96P65 1-431 I26A): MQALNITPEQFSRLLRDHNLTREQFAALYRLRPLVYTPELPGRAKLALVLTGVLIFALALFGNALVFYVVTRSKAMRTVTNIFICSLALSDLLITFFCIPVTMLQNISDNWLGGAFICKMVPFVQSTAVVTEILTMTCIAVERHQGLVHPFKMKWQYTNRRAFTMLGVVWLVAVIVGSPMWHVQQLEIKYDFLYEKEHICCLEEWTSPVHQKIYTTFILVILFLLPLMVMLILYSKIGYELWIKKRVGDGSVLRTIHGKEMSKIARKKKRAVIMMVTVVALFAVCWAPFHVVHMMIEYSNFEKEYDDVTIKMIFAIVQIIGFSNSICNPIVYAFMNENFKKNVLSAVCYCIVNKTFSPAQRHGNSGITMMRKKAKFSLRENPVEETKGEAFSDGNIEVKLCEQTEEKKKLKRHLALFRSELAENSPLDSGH
Assay: TGFα shedding assay; Exp. level WT (1:20)
Type: cell-based
Experimental: For the TGFα shedding assay and the flow cytometry analysis, we used human full-length QRFPR-encoding plasmids. Specifically, GPR103 was N-terminally modified with an HA signal sequence followed by a FLAG epitope and then a flexible linker ([…]; the FLAG epitope is underlined) and inserted into the pCAGGS vector. Plasmid encoding GPR103 mutants were generated using Quickchange Site-Directed Mutagensis kit (Agilent).
The TGFα shedding assay was performed as described previously with minor modifications. Plasmid transfection was performed in a 6-well plate with a mixture of 500 ng (per well in a 6-well plate) AP-TGFα-encoding plasmid and 200 ng GPR103-encoding plasmid. After 1-day culture, the transfected cells were harvested by trypsinization, pelleted by centrifugation at 190 × g for 5 min, and washed once with 5 mM HEPES (pH 7.4)-containing Hank’s Balanced Salt Solution (HBSS). After centrifugation, the cells were resuspended in 8 mL of the HEPES-containing HBSS. The cell suspension was seeded in a 96-well culture plate (cell plate) at a volume of 90 μL (per well hereafter) and incubated in a 37 °C incubator with 5% CO2 for 30 min. […] After spinning the cell plates at 190 × g for 2 min, 80 μL of conditioned media was transferred to an empty 96-well plate (conditioned media (CM) plate). Then, 80 μL of AP reaction solution (10 mM p-nitrophenylphosphate (p-NPP), 120 mM Tris-HCl (pH 9.5), 40 mM NaCl, and 10 mM MgCl2) was dispensed into the cell plates and the CM plates. Absorbance at 405 nm of the plates was measured using a microplate reader (SpectraMax 340 PC384, Molecular Devices) before and after 1-h incubation at room temperature. Ligand-induced AP-TGFα release was calculated by subtracting spontaneous AP-TGFα release signal from ligand-induced AP-TGFα release signal. The AP-TGFα release signals were fitted to a four-parameter sigmoidal concentration–response curve, using the Prism 10 software (GraphPad Prism). For each replicate experiment, the pEC50 parameter (negative logarithmic values of EC50 values) of the individual GPR103 mutants were normalized to that of the wild-type GPR103 performed in parallel, and resulting ∆pEC50 values were used to denote ligand response activity of the mutants. […]
Exp. le vel: WT (1:5 0)Exp. le vel: WT (1:5 0)Exp. le vel: WT (1:5 0)Exp. le vel: WT (1:2 0)Exp. le vel: WT (1:2 0)Exp. le vel: WT (1:1 0) […]
L1 4N - t e r mA F2 5N - t e r mA I 2 6N - t e r mA Y 2 9N - t e r mA C 9 82 .5 7A T10 22 .6 1A Exp . l eve l: WT (1 :5)Exp . l evel : >WT (1 :1)Exp. le vel: WT (1:2 0)Exp. le vel: WT (1:2 0)Exp. le vel: WT (1:5 0)Exp . l eve l: WT (1 :1) […]
Exp. le vel: WT (1:1 0)Exp. le vel: WT (1:2 0) C 1 1 83 .2 5AExp. le vel: WT (1:5 0)Exp. le vel: WT (1:5 0)Exp. le vel: WT (1:2 0)Exp . l eve l: WT (1 :5) […]
Exp. le vel: WT (1:5 0)Exp. le vel: WT (1:1 0)Exp. le vel: WT (1:5 0) E203ECL2AExp . l evel : >WT (1 :1)Exp. le vel: WT (1:5 0)Exp. le vel: WT (1:5 0) […]
Exp . l eve l: WT (1 :1) F28Exp. le vel: WT (1:5 0) C 2 8 56 .4 7AExp. le vel: WT (1:2 0) WExp. le vel: WT (1:2 0) F28Exp. le vel: WT (1:5 0)Exp . l evel : >WT (1 :1) […]
Exp. le vel: WT (1:5 0)Exp. le vel: WT (1:5 0) C 3 2 77 .4 8AExp . l eve l: WT (1 :5)Exp . l evel : >WT (1 :1)Exp . l evel : >WT (1 :1) […]
Suppl eme nt ary Figure 1 | Mutational analysis of GPR103. […]
mutants. Data are presented as mean values ± SEM, normally n=3-5; dots), each performed in triplicate. b-d Cell-surface expression (b) and QRFP26-in-duced activation of GPR103 (c, d) were analyzed by the flow cytometry and the TGFα shedding assay, respectively. From the concentration–response curves (a), Emax (c) and ΔpEC50 (d) values relative to the wild type were calculated. Colors in the mutant bars indicate an expression level matching to that of titrated wild type. Statistical analyses were performed using the ordinary one-way ANOVA followed by Dunnett tests with the expression-matched […]

Substance: TSGPLGNLAEELNGYSRKKGGFSFRF-NH2 [QRFP26]
- Emax (mean): 95.1%
- EC50 (n = 3): 43.7 nM
- Emax (n = 3): 97.6 ± 5%

From article PMC11187126, “Structure and dynamics of the pyroglutamylated RF-amide peptide QRFP receptor GPR103” (Nature Communications, 2024)
